Measured values taken from patent US9682995B2, “Amino-substituted isothiazoles” (BAYER PHARMA AKTIENGESELLSCHAFT, priority 2013, dated 2017).

Assays:
Experiment in all cases: Kinase Profiling (KINOMEscan)
Assay type in all cases: binding
[1] = molecular target: 456 kinases (of these 395 non-mutant kinases) (Homo sapiens, UniProt O00141); conditions: SGK; 10 μM
[2] = molecular target: 456 kinases (of these 395 non-mutant kinases) (Homo sapiens, UniProt O43293); conditions: DAPK3; 10 μM
[3] = molecular target: 456 kinases (of these 395 non-mutant kinases) (Homo sapiens, UniProt O43318); conditions: TAK1; 10 μM
[4] = molecular target: 456 kinases (of these 395 non-mutant kinases) (Homo sapiens, UniProt O60331); conditions: PIP5K1C; 10 μM
[5] = molecular target: 456 kinases (of these 395 non-mutant kinases) (Homo sapiens, UniProt O75676); conditions: 10 μM
[6] = molecular target: 456 kinases (of these 395 non-mutant kinases) (Homo sapiens, UniProt O75914); conditions: PAK3; 10 μM
[7] = molecular target: 456 kinases (of these 395 non-mutant kinases) (Homo sapiens, UniProt P00519, M351T); conditions: ABL1(M351T)-phosphorylated; 10 μM
[8] = molecular target: 456 kinases (of these 395 non-mutant kinases) (Homo sapiens, UniProt P07947); conditions: YES; 10 μM
456 kinases (of these 395 non-mutant kinases) (Homo sapiens, UniProt P07947), sequence (P07947 2-543 limits assumed, stated change not applied): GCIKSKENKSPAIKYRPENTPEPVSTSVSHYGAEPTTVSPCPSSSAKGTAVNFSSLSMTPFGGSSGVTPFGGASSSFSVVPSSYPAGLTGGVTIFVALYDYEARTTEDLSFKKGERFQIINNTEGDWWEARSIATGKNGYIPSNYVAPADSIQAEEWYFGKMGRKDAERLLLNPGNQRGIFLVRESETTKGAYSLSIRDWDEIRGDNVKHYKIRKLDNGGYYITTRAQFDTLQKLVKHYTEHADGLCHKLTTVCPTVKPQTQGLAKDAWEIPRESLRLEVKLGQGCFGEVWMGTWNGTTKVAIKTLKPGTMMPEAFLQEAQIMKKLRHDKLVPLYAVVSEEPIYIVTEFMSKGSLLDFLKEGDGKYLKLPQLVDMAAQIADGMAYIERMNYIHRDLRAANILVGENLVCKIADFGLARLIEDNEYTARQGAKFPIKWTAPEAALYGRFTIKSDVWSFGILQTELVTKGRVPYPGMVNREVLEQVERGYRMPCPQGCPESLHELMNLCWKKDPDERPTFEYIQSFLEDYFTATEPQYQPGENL

[9] = molecular target: 456 kinases (of these 395 non-mutant kinases) (Homo sapiens, UniProt P08581, M1250T); conditions: MET(M1250T); 10 μM
[10] = molecular target: 456 kinases (of these 395 non-mutant kinases) (Homo sapiens, UniProt P08581, Y1235D); conditions: MET(Y1235D); 10 μM
[11] = molecular target: 456 kinases (of these 395 non-mutant kinases) (Homo sapiens, UniProt P11802); conditions: 10 μM
456 kinases (of these 395 non-mutant kinases) (Homo sapiens, UniProt P11802), sequence (P11802 2-303 limits assumed, change not shown): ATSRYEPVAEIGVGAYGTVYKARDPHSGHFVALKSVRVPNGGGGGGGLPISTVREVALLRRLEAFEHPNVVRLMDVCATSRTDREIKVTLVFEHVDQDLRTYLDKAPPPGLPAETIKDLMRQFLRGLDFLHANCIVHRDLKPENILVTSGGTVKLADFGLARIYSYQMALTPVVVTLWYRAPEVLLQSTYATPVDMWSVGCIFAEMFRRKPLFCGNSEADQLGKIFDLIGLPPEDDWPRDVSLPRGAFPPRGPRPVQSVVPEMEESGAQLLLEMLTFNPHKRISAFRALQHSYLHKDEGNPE

[12] = molecular target: 456 kinases (of these 395 non-mutant kinases) (Homo sapiens, UniProt P15735); conditions: PHKG2; 10 μM
[13] = molecular target: 456 kinases (of these 395 non-mutant kinases) (Homo sapiens, UniProt P19784); conditions: CSNK2A2; 10 μM
[14] = molecular target: 456 kinases (of these 395 non-mutant kinases) (Homo sapiens, UniProt P22607, G697C); conditions: FGFR3(G697C); 10 μM
456 kinases (of these 395 non-mutant kinases) (Homo sapiens, UniProt P22607, G697C), sequence (P22607 23-806 G697C limits assumed): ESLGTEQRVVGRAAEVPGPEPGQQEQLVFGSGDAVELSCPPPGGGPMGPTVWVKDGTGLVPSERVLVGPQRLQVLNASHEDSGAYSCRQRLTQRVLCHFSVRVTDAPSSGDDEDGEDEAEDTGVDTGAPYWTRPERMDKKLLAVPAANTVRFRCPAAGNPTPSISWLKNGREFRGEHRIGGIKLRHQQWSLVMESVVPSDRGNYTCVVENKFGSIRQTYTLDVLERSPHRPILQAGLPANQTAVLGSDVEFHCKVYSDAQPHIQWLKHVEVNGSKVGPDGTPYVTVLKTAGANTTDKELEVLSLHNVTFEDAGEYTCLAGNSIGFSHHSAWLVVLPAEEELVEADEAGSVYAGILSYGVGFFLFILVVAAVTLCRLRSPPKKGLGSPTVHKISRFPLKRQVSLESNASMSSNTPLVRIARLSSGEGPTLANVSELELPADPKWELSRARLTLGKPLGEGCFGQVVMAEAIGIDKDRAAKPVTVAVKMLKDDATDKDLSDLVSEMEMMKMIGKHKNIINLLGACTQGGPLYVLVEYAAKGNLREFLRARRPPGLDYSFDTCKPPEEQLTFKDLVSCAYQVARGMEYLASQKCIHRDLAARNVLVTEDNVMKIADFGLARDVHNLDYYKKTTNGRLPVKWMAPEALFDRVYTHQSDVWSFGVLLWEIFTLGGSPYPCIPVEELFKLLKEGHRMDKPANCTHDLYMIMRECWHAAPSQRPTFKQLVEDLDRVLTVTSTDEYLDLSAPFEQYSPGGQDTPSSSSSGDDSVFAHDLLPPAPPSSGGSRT

[15] = molecular target: 456 kinases (of these 395 non-mutant kinases) (Homo sapiens, UniProt P42338); conditions: PIK3CB; 10 μM
[16] = molecular target: 456 kinases (of these 395 non-mutant kinases) (Homo sapiens, UniProt P45983); conditions: JNK1; 10 μM
[17] = molecular target: 456 kinases (of these 395 non-mutant kinases) (Homo sapiens, UniProt P48729); conditions: CSNK1A1; 10 μM
456 kinases (of these 395 non-mutant kinases) (Homo sapiens, UniProt P48729), sequence (P48729 2-337 limits assumed, change not shown): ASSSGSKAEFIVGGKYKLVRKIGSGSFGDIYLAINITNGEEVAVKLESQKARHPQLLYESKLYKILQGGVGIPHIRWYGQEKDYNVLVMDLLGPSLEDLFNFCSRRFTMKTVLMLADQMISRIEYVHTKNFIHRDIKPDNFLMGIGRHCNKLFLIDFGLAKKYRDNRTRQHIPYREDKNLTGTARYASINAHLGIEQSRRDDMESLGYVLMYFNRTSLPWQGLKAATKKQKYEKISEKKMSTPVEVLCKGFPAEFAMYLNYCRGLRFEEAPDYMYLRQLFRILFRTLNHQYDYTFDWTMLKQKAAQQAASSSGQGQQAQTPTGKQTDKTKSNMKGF

[18] = molecular target: 456 kinases (of these 395 non-mutant kinases) (Homo sapiens, UniProt P51617); conditions: IRAKI; 10 μM
[19] = molecular target: 456 kinases (of these 395 non-mutant kinases) (Homo sapiens, UniProt P51955); conditions: NEK2; 10 μM
[20] = molecular target: 456 kinases (of these 395 non-mutant kinases) (Homo sapiens, UniProt Q06418); conditions: TYRO3; 10 μM
456 kinases (of these 395 non-mutant kinases) (Homo sapiens, UniProt Q06418), sequence (Q06418 41-890 limits assumed, change not shown): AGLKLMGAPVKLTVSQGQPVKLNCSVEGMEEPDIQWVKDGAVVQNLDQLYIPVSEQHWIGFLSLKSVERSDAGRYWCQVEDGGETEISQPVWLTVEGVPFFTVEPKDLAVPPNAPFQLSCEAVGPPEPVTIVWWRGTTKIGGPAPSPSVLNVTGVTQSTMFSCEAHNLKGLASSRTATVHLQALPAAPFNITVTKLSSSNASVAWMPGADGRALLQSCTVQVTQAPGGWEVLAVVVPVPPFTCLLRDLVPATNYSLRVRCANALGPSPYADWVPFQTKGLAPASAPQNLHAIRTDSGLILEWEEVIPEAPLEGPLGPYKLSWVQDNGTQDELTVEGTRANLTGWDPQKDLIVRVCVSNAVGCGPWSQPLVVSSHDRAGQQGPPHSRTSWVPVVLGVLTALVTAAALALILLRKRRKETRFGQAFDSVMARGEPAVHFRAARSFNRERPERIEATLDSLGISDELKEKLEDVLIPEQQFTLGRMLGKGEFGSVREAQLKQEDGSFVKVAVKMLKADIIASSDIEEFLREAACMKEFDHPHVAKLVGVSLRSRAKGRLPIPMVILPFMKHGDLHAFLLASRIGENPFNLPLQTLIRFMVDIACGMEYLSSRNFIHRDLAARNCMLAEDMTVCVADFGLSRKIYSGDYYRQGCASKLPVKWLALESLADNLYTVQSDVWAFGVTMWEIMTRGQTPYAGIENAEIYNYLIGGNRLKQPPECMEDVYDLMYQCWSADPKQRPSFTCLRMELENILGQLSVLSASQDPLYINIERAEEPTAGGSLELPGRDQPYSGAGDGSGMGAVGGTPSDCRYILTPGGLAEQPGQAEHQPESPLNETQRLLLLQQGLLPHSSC

[21] = molecular target: 456 kinases (of these 395 non-mutant kinases) (Homo sapiens, UniProt Q13233); conditions: MAP3K1; 10 μM
456 kinases (of these 395 non-mutant kinases) (Homo sapiens, UniProt Q13233), sequence (Q13233 2-1512 limits assumed, change not shown): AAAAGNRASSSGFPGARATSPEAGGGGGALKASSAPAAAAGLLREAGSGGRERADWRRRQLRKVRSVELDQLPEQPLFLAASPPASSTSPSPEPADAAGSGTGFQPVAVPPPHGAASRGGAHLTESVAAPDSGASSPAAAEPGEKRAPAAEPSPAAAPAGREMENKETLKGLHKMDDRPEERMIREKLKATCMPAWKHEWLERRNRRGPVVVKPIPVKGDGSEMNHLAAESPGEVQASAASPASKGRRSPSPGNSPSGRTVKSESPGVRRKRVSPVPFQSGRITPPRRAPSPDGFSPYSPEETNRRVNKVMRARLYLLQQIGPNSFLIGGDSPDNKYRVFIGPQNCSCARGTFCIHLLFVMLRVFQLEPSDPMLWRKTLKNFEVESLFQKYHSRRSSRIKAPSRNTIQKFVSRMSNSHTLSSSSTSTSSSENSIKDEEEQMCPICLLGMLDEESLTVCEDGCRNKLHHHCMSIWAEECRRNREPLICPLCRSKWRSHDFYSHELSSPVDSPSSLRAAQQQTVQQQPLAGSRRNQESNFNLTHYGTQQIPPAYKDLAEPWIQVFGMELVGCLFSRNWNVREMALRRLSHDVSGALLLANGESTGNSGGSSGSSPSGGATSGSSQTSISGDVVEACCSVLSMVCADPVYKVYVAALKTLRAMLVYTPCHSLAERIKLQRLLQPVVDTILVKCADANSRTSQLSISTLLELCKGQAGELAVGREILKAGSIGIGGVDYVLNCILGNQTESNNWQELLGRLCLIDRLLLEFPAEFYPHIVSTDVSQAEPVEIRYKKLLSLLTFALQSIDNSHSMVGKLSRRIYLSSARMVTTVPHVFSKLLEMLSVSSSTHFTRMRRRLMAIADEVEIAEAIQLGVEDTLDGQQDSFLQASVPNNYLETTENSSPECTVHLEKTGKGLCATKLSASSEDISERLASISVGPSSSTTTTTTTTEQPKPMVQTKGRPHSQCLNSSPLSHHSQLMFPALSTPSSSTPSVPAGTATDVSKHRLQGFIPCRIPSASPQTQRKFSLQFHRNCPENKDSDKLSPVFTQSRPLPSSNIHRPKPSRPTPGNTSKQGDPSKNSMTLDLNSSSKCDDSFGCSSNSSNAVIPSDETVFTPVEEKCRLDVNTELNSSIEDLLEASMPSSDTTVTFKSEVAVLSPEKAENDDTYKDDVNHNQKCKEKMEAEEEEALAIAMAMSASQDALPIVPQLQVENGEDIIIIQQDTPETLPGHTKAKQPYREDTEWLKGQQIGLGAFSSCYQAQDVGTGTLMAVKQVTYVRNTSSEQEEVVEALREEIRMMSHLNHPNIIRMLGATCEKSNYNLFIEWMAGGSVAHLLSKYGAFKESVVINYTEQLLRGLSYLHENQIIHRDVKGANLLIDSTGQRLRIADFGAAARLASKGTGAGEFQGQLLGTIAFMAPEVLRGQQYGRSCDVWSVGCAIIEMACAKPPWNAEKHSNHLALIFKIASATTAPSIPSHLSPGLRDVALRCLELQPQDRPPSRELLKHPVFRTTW

[22] = molecular target: 456 kinases (of these 395 non-mutant kinases) (Homo sapiens, UniProt Q14680); conditions: MELK; 10 μM
[23] = molecular target: 456 kinases (of these 395 non-mutant kinases) (Homo sapiens, UniProt Q8IVH8); conditions: MAP4K3; 10 μM
[24] = molecular target: 456 kinases (of these 395 non-mutant kinases) (Homo sapiens, UniProt Q8IY84); conditions: NIM1; 10 μM
[25] = molecular target: 456 kinases (of these 395 non-mutant kinases) (Homo sapiens, UniProt Q8WU08); conditions: YANK1; 10 μM
456 kinases (of these 395 non-mutant kinases) (Homo sapiens, UniProt Q8WU08), sequence (Q8WU08 2-396 limits assumed, change not shown): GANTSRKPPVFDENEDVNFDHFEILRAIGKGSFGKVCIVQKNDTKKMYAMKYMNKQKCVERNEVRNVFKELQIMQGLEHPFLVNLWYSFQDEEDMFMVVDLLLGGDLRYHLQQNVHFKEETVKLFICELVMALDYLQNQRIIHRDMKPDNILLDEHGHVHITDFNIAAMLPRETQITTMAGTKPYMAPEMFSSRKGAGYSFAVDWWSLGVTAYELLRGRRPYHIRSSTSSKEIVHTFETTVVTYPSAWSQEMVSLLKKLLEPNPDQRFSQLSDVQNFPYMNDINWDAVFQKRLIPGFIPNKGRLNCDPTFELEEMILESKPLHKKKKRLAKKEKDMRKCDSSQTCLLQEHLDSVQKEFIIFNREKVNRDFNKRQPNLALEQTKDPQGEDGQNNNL

[26] = molecular target: 456 kinases (of these 395 non-mutant kinases) (Homo sapiens, UniProt Q8WXR4); conditions: MYO3B; 10 μM
[27] = molecular target: 456 kinases (of these 395 non-mutant kinases) (Homo sapiens, UniProt Q9BYP7); conditions: WNK3; 10 μM
[28] = molecular target: 456 kinases (of these 395 non-mutant kinases) (Homo sapiens, UniProt Q9H4A3); conditions: WNK1; 10 μM
[29] = molecular target: 456 kinases (of these 395 non-mutant kinases) (Homo sapiens, UniProt Q9P2K8, S808G); conditions: GCN2(Kin.Dom.2,S808G); 10 μM
[30] = molecular target: 456 kinases (of these 395 non-mutant kinases) (Homo sapiens, UniProt Q9Y5S2); conditions: MRCKB; 10 μM
[31] = molecular target: 456 kinases (of these 395 non-mutant kinases) (Homo sapiens, UniProt Q9Y6E0); conditions: MST3; 10 μM

CCc1ccccc1NC(=O)c1c(C)nsc1Nc1cnc2cc(F)ccc2n1 [Example 20, N-(2-Ethylphenyl)-5-[(6-fluoroquinoxalin-2-yl)amino]-3-methyl-1,2-thiazole-4-carboxamide]
% Ctrl @ 10 μM [1]: 100 % Ctrl
% Ctrl @ 10 μM [2]: 72 % Ctrl
% Ctrl @ 10 μM [3]: 100 % Ctrl
% Ctrl @ 10 μM [4]: 100 % Ctrl
% Ctrl @ 10 μM ([5]; RPS6KA4(Kin.Dom.1-N-terminal)): 93 % Ctrl
% Ctrl @ 10 μM ([5]; RPS6KA4(Kin.Dom.2-C-terminal)): 88 % Ctrl
% Ctrl @ 10 μM [6]: 100 % Ctrl
% Ctrl @ 10 μM [7]: 90 % Ctrl
% Ctrl @ 10 μM [8]: 90 % Ctrl
% Ctrl @ 10 μM [9]: 100 % Ctrl
% Ctrl @ 10 μM [10]: 77 % Ctrl
% Ctrl @ 10 μM ([11]; CDK4-cyclinD1): 85 % Ctrl
% Ctrl @ 10 μM ([11]; CDK4-cyclinD3): 93 % Ctrl
% Ctrl @ 10 μM [12]: 99 % Ctrl
% Ctrl @ 10 μM [13]: 100 % Ctrl
% Ctrl @ 10 μM [14]: 87 % Ctrl
% Ctrl @ 10 μM [15]: 83 % Ctrl
% Ctrl @ 10 μM [16]: 100 % Ctrl
% Ctrl @ 10 μM [17]: 92 % Ctrl
% Ctrl @ 10 μM [18]: 100 % Ctrl
% Ctrl @ 10 μM [19]: 100 % Ctrl
% Ctrl @ 10 μM [20]: 56 % Ctrl
% Ctrl @ 10 μM [21]: 84 % Ctrl
% Ctrl @ 10 μM [22]: 100 % Ctrl
% Ctrl @ 10 μM [23]: 83 % Ctrl
% Ctrl @ 10 μM [24]: 77 % Ctrl
% Ctrl @ 10 μM [25]: 100 % Ctrl
% Ctrl @ 10 μM [26]: 100 % Ctrl
% Ctrl @ 10 μM [27]: 100 % Ctrl
% Ctrl @ 10 μM [28]: 100 % Ctrl
% Ctrl @ 10 μM [29]: 100 % Ctrl
% Ctrl @ 10 μM [30]: 61 % Ctrl
% Ctrl @ 10 μM [31]: 75 % Ctrl
